Drawing on BindingDB's records for doi:10.1111/cbdd.12596 (Nanjing University, 2015), this text covers IC50 for 23 compounds.

Assay in all cases: VEGFR2 Kinase Assay
What all share (settings): pH 7.2; 25 °C

Experiment [1] deals with Vascular endothelial growth factor receptor 2 (Homo sapiens, UniProt P35968). The method, then:
VEGFR kinase assays were set up to assess the level of autophosphorylation based on DELFIA/Time-Resolved Fluorometry. 96-well plates were coated at room temperature for 1-2 h with 100 μL per well of 25 μg mL−1 poly-(Glu4-Tyr) peptide (Sigma) in Tris-buffered saline (TBS) (25 mM Tris, pH 7.2, 150 mM NaCl). Unbound peptide was washed three times with PBS. The cytoplasmic domain of VEGFR-2 enzyme was diluted (depending on the specific activity of the batch, from 10- to 20-fold) in 0.1% BSA/4 mM HEPES. […] Controls were done by adding DMSO alone, i.e., no test compound, to wells containing the master mix of enzyme plus kinase buffer. After 15 min at room temperature, ATP/MgCl2 (20 μL of

Experiment [2] concerns the target Epidermal growth factor receptor (Homo sapiens, UniProt P00533).
In experiment [3] the target is Fibroblast growth factor 2 (Homo sapiens, UniProt P09038).

The IC50 is the concentration at which inhibition is half-maximal. A low value points to inhibition by little substance.

Chain of Vascular endothelial growth factor receptor 2 (P35968 whole entry, the tested form may be a part): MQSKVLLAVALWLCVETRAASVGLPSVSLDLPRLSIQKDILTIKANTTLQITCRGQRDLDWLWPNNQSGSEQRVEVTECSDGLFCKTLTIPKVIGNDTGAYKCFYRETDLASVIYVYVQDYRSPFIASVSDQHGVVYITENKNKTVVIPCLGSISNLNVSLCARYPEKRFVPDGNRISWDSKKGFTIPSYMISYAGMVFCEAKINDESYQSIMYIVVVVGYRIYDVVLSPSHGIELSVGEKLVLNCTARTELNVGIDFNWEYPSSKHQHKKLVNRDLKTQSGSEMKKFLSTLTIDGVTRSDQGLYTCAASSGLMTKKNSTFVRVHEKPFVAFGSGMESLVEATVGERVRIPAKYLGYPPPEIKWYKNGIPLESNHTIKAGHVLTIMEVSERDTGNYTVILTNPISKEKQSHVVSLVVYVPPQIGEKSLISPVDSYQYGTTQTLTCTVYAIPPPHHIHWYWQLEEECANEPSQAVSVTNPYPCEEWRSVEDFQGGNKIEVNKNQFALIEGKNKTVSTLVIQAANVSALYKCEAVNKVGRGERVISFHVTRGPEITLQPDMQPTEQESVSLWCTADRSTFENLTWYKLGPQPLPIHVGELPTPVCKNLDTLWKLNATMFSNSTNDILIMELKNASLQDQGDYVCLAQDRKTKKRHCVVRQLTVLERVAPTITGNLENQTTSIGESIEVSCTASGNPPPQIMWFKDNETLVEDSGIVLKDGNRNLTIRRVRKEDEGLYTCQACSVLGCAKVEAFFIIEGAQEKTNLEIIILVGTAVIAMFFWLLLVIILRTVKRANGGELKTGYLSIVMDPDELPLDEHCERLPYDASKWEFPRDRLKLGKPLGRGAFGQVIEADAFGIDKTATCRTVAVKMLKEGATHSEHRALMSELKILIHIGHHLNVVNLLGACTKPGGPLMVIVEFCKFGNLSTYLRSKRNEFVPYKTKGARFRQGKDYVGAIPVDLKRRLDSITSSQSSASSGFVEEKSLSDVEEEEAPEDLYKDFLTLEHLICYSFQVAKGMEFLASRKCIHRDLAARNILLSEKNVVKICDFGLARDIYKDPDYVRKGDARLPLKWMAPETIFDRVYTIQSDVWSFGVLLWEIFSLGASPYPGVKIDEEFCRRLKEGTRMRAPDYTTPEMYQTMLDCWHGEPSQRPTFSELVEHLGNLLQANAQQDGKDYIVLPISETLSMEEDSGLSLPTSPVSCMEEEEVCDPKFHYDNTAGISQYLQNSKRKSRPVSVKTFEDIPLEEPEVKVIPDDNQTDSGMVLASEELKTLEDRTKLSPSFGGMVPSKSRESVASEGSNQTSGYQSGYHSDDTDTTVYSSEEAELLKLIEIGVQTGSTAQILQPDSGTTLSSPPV
Chain of Epidermal growth factor receptor (P00533 whole entry): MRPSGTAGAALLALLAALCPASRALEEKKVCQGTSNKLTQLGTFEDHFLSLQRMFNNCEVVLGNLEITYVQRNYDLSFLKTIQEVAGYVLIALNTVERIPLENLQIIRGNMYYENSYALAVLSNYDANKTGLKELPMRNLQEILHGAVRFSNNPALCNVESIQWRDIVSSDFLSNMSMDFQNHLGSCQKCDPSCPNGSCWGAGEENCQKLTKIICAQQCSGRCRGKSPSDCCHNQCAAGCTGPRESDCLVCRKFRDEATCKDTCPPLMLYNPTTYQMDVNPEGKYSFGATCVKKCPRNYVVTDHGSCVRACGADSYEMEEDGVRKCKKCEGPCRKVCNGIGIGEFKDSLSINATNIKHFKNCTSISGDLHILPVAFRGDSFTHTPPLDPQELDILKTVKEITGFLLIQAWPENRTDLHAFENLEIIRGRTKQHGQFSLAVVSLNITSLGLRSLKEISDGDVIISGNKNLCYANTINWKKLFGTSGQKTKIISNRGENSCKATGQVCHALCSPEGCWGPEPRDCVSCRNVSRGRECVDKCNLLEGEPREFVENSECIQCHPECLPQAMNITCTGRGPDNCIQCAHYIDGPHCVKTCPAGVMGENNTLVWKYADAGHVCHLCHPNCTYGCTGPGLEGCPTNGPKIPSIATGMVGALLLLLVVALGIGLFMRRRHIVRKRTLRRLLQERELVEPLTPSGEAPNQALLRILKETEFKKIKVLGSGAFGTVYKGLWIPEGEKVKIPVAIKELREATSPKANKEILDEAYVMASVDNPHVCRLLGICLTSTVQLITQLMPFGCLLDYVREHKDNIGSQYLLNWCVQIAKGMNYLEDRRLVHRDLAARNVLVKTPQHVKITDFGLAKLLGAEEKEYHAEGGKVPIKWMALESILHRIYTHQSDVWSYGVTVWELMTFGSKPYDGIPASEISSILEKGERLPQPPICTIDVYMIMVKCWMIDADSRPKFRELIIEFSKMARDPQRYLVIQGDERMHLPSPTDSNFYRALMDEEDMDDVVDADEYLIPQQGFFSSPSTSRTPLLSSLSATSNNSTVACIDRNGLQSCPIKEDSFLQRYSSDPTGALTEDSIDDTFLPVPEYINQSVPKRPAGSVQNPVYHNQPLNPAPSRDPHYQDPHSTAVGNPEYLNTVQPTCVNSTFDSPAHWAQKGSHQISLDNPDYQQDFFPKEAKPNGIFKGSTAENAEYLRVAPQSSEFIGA

Take `OC(COc1ncnc2ccccc12)Cn1ccnc1` (configuration not stated) [1-(1H-Imidazol-1-yl)-3-(quinazolin-4-yloxy)propan-2-ol (3t)]: the 50% inhibitory concentration (IC50) in experiment [1] came to 84.3 nM; in experiment [2], 483 nM; in experiment [3], 609 nM.
Regarding `Cc1nccn1CC(O)COc1ncnc2ccccc12` (configuration not stated) [1-(2-Methyl-1H-imidazol-1-yl)-3-(quinazolin-4-yloxy)propan-2-ol (3u)], the half-inhibitory concentration (IC50) stood at 55.7 nM in experiment [1], 444 nM in experiment [2] and 586 nM in experiment [3].
The like results for `OC(COc1ncnc2ccccc12)CN1CCN(c2cccc(Cl)c2Cl)CC1` (configuration not stated) [1-(4-(2,3-Dichlorophenyl)piperazin-1-yl)-3-(quinazolin-4-yloxy)propan-2-ol (3k)] were, in that order, 47.7 nM, 409 nM and 398 nM.
In the case of `Cc1ccc(N2CCN(CC(O)COc3ncnc4ccccc34)CC2)c(C)c1` (configuration not stated) [1-(4-(2,4-Dimethylphenyl)piperazin-1-yl)-3-(quinazolin-4-yloxy)propan-2-ol (3m)], the IC50 in experiment [1] stood at 12.4 nM; in experiment [2], 395 nM; in experiment [3], 222 nM.
For `OC(COc1ncnc2ccccc12)CN1CCN(c2ccccc2Cl)CC1` (configuration not stated) [1-(4-(2-Chlorophenyl)piperazin-1-yl)-3-(quinazolin-4-yloxy)propan-2-ol (3b)] the same measures were 49.8 nM, 418 nM and 506 nM.
In the case of `OC(COc1ncnc2ccccc12)CN1CCN(c2ccccc2F)CC1` (configuration not stated) [1-(4-(2-Fluorophenyl)piperazin-1-yl)-3-(quinazolin-4-yloxy)propan-2-ol (3d)], the IC50 in experiment [1] amounted to 34.7 nM; in experiment [2], 409 nM; in experiment [3], 372 nM.
The like results for `COc1ccccc1N1CCN(CC(O)COc2ncnc3ccccc23)CC1` (configuration not stated) [1-(4-(2-Methoxyphenyl)piperazin-1-yl)-3-(quinazolin-4-yloxy)propan-2-ol (3g)] were, in that order, 9.98 nM, 357 nM and 209 nM.
Turning to `OC(COc1ncnc2ccccc12)CN1CCN(c2ccc(Cl)c(Cl)c2)CC1` (configuration not stated) [1-(4-(3,4-Dichlorophenyl)piperazin-1-yl)-3-(quinazolin-4-yloxy)propan-2-ol (3l)], the concentration for half-maximal inhibition (IC50) in experiment [1] turned out to be 8.42 nM; in experiment [2], 344 nM; in experiment [3] it was 178 nM.
For the compound `OC(COc1ncnc2ccccc12)CN1CCN(c2cccc(C(F)(F)F)c2)CC1` (configuration not stated) [1-(4-(3-(Trifluoromethyl)phenyl)piperazin-1-yl)-3-(quinazolin-4-yloxy)propan-2-ol (3j)], the half-maximal inhibitory concentration (IC50) in experiment [1] came out at 4.98 nM; in experiment [2], 307 nM; in experiment [3] it was 145 nM.
On to `OC(COc1ncnc2ccccc12)CN1CCN(c2cccc(Cl)c2)CC1` (configuration not stated) [1-(4-(3-Chlorophenyl)piperazin-1-yl)-3-(quinazolin-4-yloxy)propan-2-ol (3c)], for which the half-inhibitory concentration (IC50) turned out to be 47.4 nM in experiment [1], 413 nM in experiment [2] and 402 nM in experiment [3].
For the compound `COc1cccc(N2CCN(CC(O)COc3ncnc4ccccc34)CC2)c1` (configuration not stated) [1-(4-(3-Methoxyphenyl)piperazin-1-yl)-3-(quinazolin-4-yloxy)propan-2-ol (3h)], the results for the IC50 in experiment [1], in experiment [2] and in experiment [3] were 2.89 nM, 208 nM and 103 nM, respectively.
As to `OC(COc1ncnc2ccccc12)CN1CCN(c2ccc(F)cc2)CC1` (configuration not stated) [1-(4-(4-Fluorophenyl)piperazin-1-yl)-3-(quinazolin-4-yloxy)propan-2-ol (3e)], the concentration for half-maximal inhibition (IC50) came out at 21.8 nM in experiment [1], 403 nM in experiment [2] and 300 nM in experiment [3].
Take `COc1ccc(N2CCN(CC(O)COc3ncnc4ccccc34)CC2)cc1` (configuration not stated) [1-(4-(4-Methoxyphenyl)piperazin-1-yl)-3-(quinazolin-4-yloxy)propan-2-ol (3i)]: the figures for the IC50 in experiment [1], in experiment [2] and in experiment [3] were 3.42 nM, 276 nM and 122 nM, respectively.
For `O=[N+]([O-])c1ccc(N2CCN(CC(O)COc3ncnc4ccccc34)CC2)cc1` (configuration not stated) [1-(4-(4-Nitrophenyl)piperazin-1-yl)-3-(quinazolin-4-yloxy)propan-2-ol (3f)] the same measures were 16.5 nM, 382 nM and 248 nM.
Regarding `OC(COc1ncnc2ccccc12)CN1CCN(Cc2ccccc2)CC1` (configuration not stated) [1-(4-Benzylpiperazin-1-yl)-3-(quinazolin-4-yloxy)propan-2-ol (3n)], the figures for the IC50 in experiment [1], in experiment [2] and in experiment [3] were 52.2 nM, 435 nM and 444 nM, respectively.
As for `CCN1CCN(CC(O)COc2ncnc3ccccc23)CC1` (configuration not stated) [1-(4-Ethylpiperazin-1-yl)-3-(quinazolin-4-yloxy)propan-2-ol (3p)], the figures for the IC50 in experiment [1], in experiment [2] and in experiment [3] were 54.4 nM, 462 nM and 519 nM, respectively.
For the compound `Cc1cn(CC(O)COc2ncnc3ccccc23)cn1` (configuration not stated) [1-(4-Methyl-1H-imidazol-1-yl)-3-(quinazolin-4-yloxy)propan-2-ol (3v)], the values for the 50% inhibitory concentration (IC50) in experiment [1], in experiment [2] and in experiment [3] were 74.2 nM, 452 nM and 592 nM, respectively.
In the case of `CN1CCN(CC(O)COc2ncnc3ccccc23)CC1` (configuration not stated) [1-(4-Methylpiperazin-1-yl)-3-(quinazolin-4-yloxy)propan-2-ol (3o)], the half-maximal inhibitory concentration (IC50) came out at 59.3 nM in experiment [1], 474 nM in experiment [2] and 419 nM in experiment [3].
Turning to `OC(COc1ncnc2ccccc12)CN1CCN(c2ccccc2)CC1` (configuration not stated) [1-(4-Phenylpiperazin-1-yl)-3-(quinazolin-4-yloxy)propan-2-ol (3a)], the figures for the 50% inhibitory concentration (IC50) in experiment [1], in experiment [2] and in experiment [3] were 32.6 nM, 400 nM and 293 nM, respectively.
The like results for `CN(C)CC(O)COc1ncnc2ccccc12` (configuration not stated) [1-(Dimethylamino)-3-(quinazolin-4-yloxy)propan-2-ol (3q)] were, in that order, 63 nM, 455 nM and 582 nM.
Turning to `OC(COc1ncnc2ccccc12)CN1CCCCC1` (configuration not stated) [1-(Piperidin-1-yl)-3-(quinazolin-4-yloxy)propan-2-ol (3s)], the IC50 in experiment [1] was 78.5 nM; in experiment [2], 474 nM; in experiment [3], 593 nM.
Regarding `OC(COc1ncnc2ccccc12)CN1CCOCC1` (configuration not stated) [1-Morpholino-3-(quinazolin-4-yloxy)propan-2-ol (3r)], the half-inhibitory concentration (IC50) was 81.7 nM in experiment [1], 483 nM in experiment [2] and 602 nM in experiment [3].
For `COc1cc2nccc(Oc3ccc(NC(=O)Nc4cc(C)on4)c(Cl)c3)c2cc1OC` [Tivozanib], in experiment [3], the IC50 turned out to be 114 nM.
